We go through 8 molecules from patent publication US20240116985A1, “STAPLED PEPTIDES AND METHODS THEREOF” (priority 2020, published 2024).

≈ marks a conversion by molar mass, not a printed value. Read-outs that look alike come from different tables or passages of the source.

Data set [1] relates to TCF/LEF luciferase Reporter in DLD1 cells. The data set is described as follows: TCF reporter assay (DLD1 TCF/LEF luciferase reporter, Bright-Glo). In kind it is cell-based. Conditions: read-out: DLD1 4% Abs IC50, 4%. The source says: Those skilled in the art will appreciate that other suitable reagents may be utilized and various parameters may be adjusted.
DLD1 reporter cell line was generated by using TCF/LEF luciferase Reporter Lentivirus (BPS Bioscience Catalog #79787). Parental DLD1 cells (ATCC@ CCL-221) were transfected with the lentivirus and followed by 3-day puromycin selection. Single clone was selected for Reporter assay.
On Day 1, cultured cells in flasks that are no more than about 60-70% confluent were washed with PBS and typsinized in 3 mL/T75 until cells were free floating. Spin down cells for 5 minutes at 1100RPM. While cells spin, determine the number of plates (3 compounds per plate) needed. After spinning, aspirate the supernatant gently and add 10 mL media (RPMI+4% FBS), and re-suspend and mix the cells gently. Count the cells twice in the cell counter Countess and take average of both the counts, and determine how many cells are needed. After plating cells at 5000 cells/well, seal with aerseal film. 90 uL cells/well. Incubate at 37° C. overnight, tap gently to mix and don't stack plates.
On Day 2, compounds were added. Stock solution was 10 mM. Make the DMSO containing media by adding 36 uL DMSO to 10 mL of media. Make the dilution wells by transferring 100 uL DMSO+Media into rows B-F of a protein LoBind 96-well plate. Row G is empty. Add any extra DMSO+media to row H. Transfer 4 uL of stock solution to Row A. One compound per column. Add 196 uL media to Row A, no DMSO in the media. Concentration of Row A was 200 uM. Mix well and do a 6 pt, 1:2 serial dilution, mix ×10 per transfer and change tips before each transfer. Removed excess volume from final well (row F) and discard. Transfer 10 uL of the compound containing media to cells with a multichannel according to plate maps. Add 60 uL DMSO containing media to the DMSO wells. The edge wells were typically not used in the assay and could be ignored if needed or replaced with PBS, but there typically were liquids in the wells. Cover plates with breathable plate sealer and incubate overnight.
A 96-well plate may be utilized to prepare dilution series for up to 12 compounds, each with several concentrations (e.g., 200, 100, 50, 25, 12.5, 6.25 and 0 uM; can be utilized as 100× depending on final test concentrations).
0 uM is the DMSO control for the whole plate. Edge well filled with 90 uL cells+10 uL DMSO containing media.
On Day 3, luciferase levels were assessed using Bright-Glo (Promega). Equilibrate Bright-Glo to room temperature before addition. 7 mL of mixed Bright-Gbo per plate. Unused Bright-Glo could be store at −80° C. Reconstituted reagent can be stored for up to 1 month at −80° C., or after one freeze-thaw. When ready to read, remove plates from incubator and let sit at room temperature for 15 minutes. Typically stagger taking out plates if reading multiple plates before adding the Bright-Glo. Add 90 uL/well Bright-Glo and shake gently for 3 minutes. Read luminescence on GloMax immediately using ‘BrightGlo’ programs.
Cellular activity was assessed using CTG. Equilibrate CTG reagents to room temperature. Equilibrate plates to room temp, e.g. 15 min. Use same time length for all plates. Add CTG reagent, 25 uL if using undiluted, or 90 uL if diluted 1 to 4. Shake for 2 min to induce cell lysis. Allow plate to incubate at RT for 10 min to stabilize lumine sent signal. Read luminesence using program ‘CellTiter-Glo’. Use Prism to find the Absolute IC50 (AbsIC50=X[50]) of each compound.
(A reporter such as luciferase makes a cellular process visible.)

Data set [2] deals with T1, beta-catenin/TCF4 engagement (Homo sapiens, UniProt P35222).
T1 construct: expressed in transfected cells; host or cells: HEK293
T1 sequence (P35222 1-781): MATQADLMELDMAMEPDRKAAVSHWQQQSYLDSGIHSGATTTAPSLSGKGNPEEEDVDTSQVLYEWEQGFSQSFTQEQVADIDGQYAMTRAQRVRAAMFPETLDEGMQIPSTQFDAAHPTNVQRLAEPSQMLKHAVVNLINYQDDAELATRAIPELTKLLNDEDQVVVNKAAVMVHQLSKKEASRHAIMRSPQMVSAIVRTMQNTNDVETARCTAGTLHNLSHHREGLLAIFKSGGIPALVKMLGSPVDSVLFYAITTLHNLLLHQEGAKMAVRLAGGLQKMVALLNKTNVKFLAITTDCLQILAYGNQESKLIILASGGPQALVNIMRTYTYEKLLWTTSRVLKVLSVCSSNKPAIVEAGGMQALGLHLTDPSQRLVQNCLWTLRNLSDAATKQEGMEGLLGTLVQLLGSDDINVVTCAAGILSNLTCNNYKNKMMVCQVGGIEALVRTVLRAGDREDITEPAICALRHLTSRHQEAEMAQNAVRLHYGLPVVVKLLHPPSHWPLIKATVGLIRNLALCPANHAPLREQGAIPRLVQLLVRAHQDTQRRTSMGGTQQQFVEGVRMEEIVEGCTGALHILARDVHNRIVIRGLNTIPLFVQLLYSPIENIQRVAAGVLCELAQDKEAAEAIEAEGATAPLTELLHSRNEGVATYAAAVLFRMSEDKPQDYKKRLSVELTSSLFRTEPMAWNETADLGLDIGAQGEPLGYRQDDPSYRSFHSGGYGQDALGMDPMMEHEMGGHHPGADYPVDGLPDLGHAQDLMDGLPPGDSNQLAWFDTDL
In words: Nano-BRET target engagement assay (B-cat-Halo & TCF4-Luc in HEK293 cells). In kind it is cell-based. The note with it: read-out: NanoBRET Abs IC50.

The target in data set [3] is T2, full-length beta-Catenin (Uniprot ID P35222) (Homo sapiens, UniProt P35222).
T2 construct: 10 nM full-length beta-Catenin (Uniprot ID P35222)
T2 sequence (P35222 1-781): T1 sequence (P35222 1-781)
In words: Fluorescence polarization IC50 (beta-catenin / 5FAM-TCF4 10-53 competition). In kind it is binding. Conditions: read-out: beta-Catenin FP IC50. For orientation: In fluorescence polarisation assays a small probe gives low polarisation when free and higher when bound to something large.

A further data set in a line: CHI Log D procedure. In kind it is physicochemical. The note with it: pH 7.4, CHI Log D.
A further data set in a line: Solubility in PBS. In kind it is physicochemical. The note with it: Solubility (uM). The gist of the method:
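PBS sample ultracentrifuged; supernatant run on HPLC vs. 50 μM peptide in DMSO standard. Solubility = (PBS peak area / DMSO peak area) × 50 uM.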

The mark [4] stands for this setting: DLD1 reporter assay, absolute IC50.

What is called IC50 is the concentration that gives 50% inhibition. In general, chromatographic logD refers to lipophilicity estimated from chromatographic retention. Read a low chromatographic logD as a more hydrophilic compound. A word on the Solubility: it is how much of the substance goes into solution per volume.

For `CC(=O)N1CCC[C@]12CC=CCCCC1(CCCC=CCCCOC(=O)N3CC[C@@](C(=O)N[C@@H](Cc4ccsc4)C(=O)N[C@@H](Cc4csc5ccccc45)C(=O)N[C@@H](CO)C(N)=O)(C3)NC(=O)[C@H](CC(C)C)NC(=O)[C@H](Cc3ccccc3)NC(=O)[C@H](C)NC(=O)[C@H](C)NC(=O)[C@H](Cc3ccccc3C(=O)O)NC(=O)[C@H](CC(=O)O)NC1=O)NC(=O)[C@H](CC(C)(C)C)NC(=O)[C@H](CC(=O)O)NC2=O` (single isomer, unassigned) [I-1667, Ac-PL3-Asp-Npg-B5-Asp-2COOHF-Ala-Ala-Phe-Leu-PyrS2-3Thi-BztA-Ser-NH2], the IC50 in data set [1] (setting [4]) amounted to 1.3 µM; in data set [2] (absolute IC50) it was 5.6 µM; in data set [3] (fluorescence polarization), 0.013 µM.
On to `CC(=O)N1CCC[C@]12CC=CCCCC1(CCCC=CCCCOC(=O)N3CC[C@@](C(=O)N[C@@H](Cc4ccsc4)C(=O)N[C@@H](Cc4csc5ccccc45)C(=O)N[C@H](CO)[C@@H](C)O)(C3)NC(=O)[C@H](CC(C)C)NC(=O)[C@H](Cc3ccccc3)NC(=O)[C@H](C)NC(=O)[C@H](C)NC(=O)[C@H](Cc3ccccc3C(=O)O)NC(=O)[C@H](CC(=O)O)NC1=O)NC(=O)[C@H](CC(C)(C)C)NC(=O)[C@H](CC(=O)O)NC2=O` (single isomer, unassigned) [I-1671, Ac-PL3-Asp-Npg-B5-Asp-2COOHF-Ala-Ala-Phe-Leu-PyrS2-3Thi-BztA-Thro1], for which the IC50 in data set [1] (setting [4]) is 1.7 µM; in data set [2] (absolute IC50), 8 µM; in data set [3] (fluorescence polarization), 0.028 µM.
In turn, `COc1cccc(C[C@@H]2NC(=O)[C@H](C)NC(=O)[C@H](C)NC(=O)[C@H](CC(=O)O)NC(=O)[C@H](CC(=O)O)NC(=O)C3(CCCC=CCCCOC(=O)N4CC[C@@](C(=O)N[C@@H](Cc5ccccc5)C(=O)N[C@@H](Cc5csc6ccccc56)C(=O)N[C@@H](CCC(N)=O)C(N)=O)(C4)NC(=O)[C@H](CC(C)C)NC2=O)CCCC=CC[C@]2(CCCN2C(C)=O)C(=O)N[C@@H](CC(=O)O)C(=O)N[C@@H](CC(C)(C)C)C(=O)N3)c1` (stereo partly drawn) [I-1127, Ac-PL3-Asp-Npg-B5-Asp-Asp-Ala-Ala-3OMeF-Leu-PyrS2-Phe-BztA-Gln-NH2] showed a chromatographic logD in “CHI Log D procedure” of 2.18. Besides, the IC50 amounted to 5.4 µM in data set [2] and 0.018 µM in data set [3]. In the data set “Solubility in PBS”, the Solubility amounted to 47 µM (≈ 91.2 µg/mL).
On to `CC(=O)N1CCC[C@]12CC=CCCCC1(CCCC=CCCCOC(=O)N3CC[C@@](C(=O)N[C@@H](Cc4ccccc4)C(=O)N[C@@H](Cc4csc5ccccc45)C(=O)N[C@@H](CCC(N)=O)C(N)=O)(C3)NC(=O)[C@H](CC(C)C)NC(=O)[C@H](Cc3cccc(C(F)(F)F)c3)NC(=O)[C@H](C)NC(=O)[C@H](C)NC(=O)[C@H](CC(=O)O)NC(=O)[C@H](CC(=O)O)NC1=O)NC(=O)[C@H](CC(C)(C)C)NC(=O)[C@H](CC(=O)O)NC2=O` (stereo partly drawn) [I-1128, Ac-PL3-Asp-Npg-B5-Asp-Asp-Ala-Ala-3F3MeF-Leu-PyrS2-Phe-BztA-Gln-NH2], for which the chromatographic logD in the data set “CHI Log D procedure” came out at 2.3. The IC50 was 8.1 µM in data set [2] and 0.02 µM in data set [3]. This molecule also came in with a Solubility in the data set “Solubility in PBS” of 23 µM (≈ 45.5 µg/mL).
For the molecule `CC(=O)N1CCC[C@]12CC=CCCCC1(CCCC=CCCCOC(=O)N3CC[C@@](C(=O)N[C@@H](Cc4ccccc4C(F)(F)F)C(=O)N[C@@H](Cc4csc5ccccc45)C(=O)N[C@@H](CCC(N)=O)C(N)=O)(C3)NC(=O)[C@H](CC(C)C)NC(=O)[C@H](Cc3ccccc3)NC(=O)[C@H](C)NC(=O)[C@H](C)NC(=O)[C@H](Cc3cccc(C(=O)O)c3)NC(=O)[C@H](CC(=O)O)NC1=O)NC(=O)[C@H](CC(C)(C)C)NC(=O)[C@H](CC(=O)O)NC2=O` (stereo partly drawn) [I-1466, Ac-PL3-Asp-Npg-B5-Asp-3COOHF-Ala-Ala-Phe-Leu-PyrS2-2F3MeF-BztA-Gln-NH2], the IC50 in data set [1] (DLD1 reporter, absolute IC50) was found to be 0.7 µM; in data set [3], 0.01 µM.
`CC(=O)N1CCC[C@]12CC=CCCCC1(CCCC=CCCCOC(=O)N3CC[C@@](C(=O)N[C@@H](Cc4ccsc4)C(=O)N[C@@H](Cc4csc5ccccc45)C(=O)N[C@@H](CCCNC(=N)N)C(N)=O)(C3)NC(=O)[C@H](CC(N)=O)NC(=O)[C@H](Cc3ccccc3)NC(=O)[C@H](C)NC(=O)C(C)(C)NC(=O)[C@H]([C@@H](C)O)NC(=O)[C@H](CC(N)=O)NC1=O)NC(=O)[C@H](CC(C)(C)C)NC(=O)[C@H](CC(=O)O)NC2=O` (stereo partly drawn) [I-2413, Ac-PL3-Asp-Npg-B5-Asn-Thr-Aib-Ala-Phe-Asn-PyrS2-3Thi-BztA-Arg-NH2]: the IC50 in data set [1] (DLD1 reporter, absolute IC50) was greater than 20 µM; in data set [3] (fluorescence polarization) it was 0.133 µM.
In the case of `CC(C)C[C@H](NC(=O)[C@]12CCN(C1)C(=O)OCCCCCCCCC1(CCCCCCc3ccccc3C(=O)N3CCC[C@@]3(C)C(=O)N[C@@H](CC(=O)O)C(=O)N1)C(=O)N[C@@H](C)C(=O)N[C@@H](CC(=O)O)C(=O)N[C@@H](CC(=O)O)C(=O)N[C@@H](C)C(=O)N[C@@H](C)C(=O)N[C@@H](Cc1ccccc1)C(=O)N2)C(=O)N[C@@H](Cc1ccsc1)C(=O)N[C@@H](Cc1csc2ccccc12)C(=O)N[C@@H](CCC(N)=O)C(N)=O` (stereo partly drawn) [I-2606, BzAm2Allyl-MePro-Asp-B5-Ala-Asp-Asp-Ala-Ala-Phe-PyrS2-Leu-3Thi-BztA-Gln-NH2], the IC50 in data set [1] (DLD1 reporter) is greater than 20 µM; in data set [3] (fluorescence polarization), 0.734 µM.
For `CC(C)C[C@H](NC(=O)[C@]12CCN(C1)C(=O)OCCCCCCCCC1(CCCCCCc3ccccc3C(=O)N3CCC[C@@]3(C)C(=O)N[C@@H](CC(=O)O)C(=O)N1)C(=O)N[C@@H](C)C(=O)N[C@@H](CC(=O)O)C(=O)N[C@@H](Cc1cccc(C(=O)O)c1)C(=O)N[C@@H](C)C(=O)N[C@@H](C)C(=O)N[C@@H](Cc1ccccc1)C(=O)N2)C(=O)N[C@@H](Cc1ccsc1)C(=O)N[C@@H](Cc1csc2ccccc12)C(=O)N[C@@H](CCC(N)=O)C(N)=O` (stereo partly drawn) [I-2607, BzAm2Allyl-MePro-Asp-B5-Ala-Asp-3COOHF-Ala-Ala-Phe-PyrS2-Leu-3Thi-BztA-Gln-NH2] the same measures were greater than 20 µM and 0.904 µM.
